Measurements: US9963452B2, “Methods, compounds, and compositions for inhibition of ROS” (AUGUSTA PHARMACEUTICALS INC., priority 2013, dated 2018)

Target: ROS (Homo sapiens, UniProt P08922)
Experiment: In vitro ROS enzymatic reaction assay (HTRF, Cisbio)
Assay type: biochemical
Set-up: ROS or EGFR enzyme, 0.008 ng/ul
Settings: for Kinase Inhib. 10 uM (%) / inhibition at 5 µM / Kinase Inhib. 5 uM (%) / inhibition at 10 µM: ROS kinase; for Kinase Inhib. 10 uM (%) / inhibition at 10 µM: compound at 10 uM; for inhibition at 5 µM / Kinase Inhib. 5 uM (%): compound at 5 uM; for inhibition at 5 µM: read-out: Kinase Inhib. 5 uM (%); for inhibition at 10 µM: read-out: Kinase Inhib. 10 uM (%)
Procedure: The ROS enzymatic reactions were carried out with a high throughput screening platform for phosphor-detection of kinase activity. This platform based on homogeneous time resolved fluorescence (HTRF) technology from Cisbio Bioassays, Inc. (Cisbio). […] The reaction was allowed to proceed for 30 minutes at room temperature. An equal volume of detection buffer was then added to the reaction mix.

Chain of ROS (P08922 28-2347): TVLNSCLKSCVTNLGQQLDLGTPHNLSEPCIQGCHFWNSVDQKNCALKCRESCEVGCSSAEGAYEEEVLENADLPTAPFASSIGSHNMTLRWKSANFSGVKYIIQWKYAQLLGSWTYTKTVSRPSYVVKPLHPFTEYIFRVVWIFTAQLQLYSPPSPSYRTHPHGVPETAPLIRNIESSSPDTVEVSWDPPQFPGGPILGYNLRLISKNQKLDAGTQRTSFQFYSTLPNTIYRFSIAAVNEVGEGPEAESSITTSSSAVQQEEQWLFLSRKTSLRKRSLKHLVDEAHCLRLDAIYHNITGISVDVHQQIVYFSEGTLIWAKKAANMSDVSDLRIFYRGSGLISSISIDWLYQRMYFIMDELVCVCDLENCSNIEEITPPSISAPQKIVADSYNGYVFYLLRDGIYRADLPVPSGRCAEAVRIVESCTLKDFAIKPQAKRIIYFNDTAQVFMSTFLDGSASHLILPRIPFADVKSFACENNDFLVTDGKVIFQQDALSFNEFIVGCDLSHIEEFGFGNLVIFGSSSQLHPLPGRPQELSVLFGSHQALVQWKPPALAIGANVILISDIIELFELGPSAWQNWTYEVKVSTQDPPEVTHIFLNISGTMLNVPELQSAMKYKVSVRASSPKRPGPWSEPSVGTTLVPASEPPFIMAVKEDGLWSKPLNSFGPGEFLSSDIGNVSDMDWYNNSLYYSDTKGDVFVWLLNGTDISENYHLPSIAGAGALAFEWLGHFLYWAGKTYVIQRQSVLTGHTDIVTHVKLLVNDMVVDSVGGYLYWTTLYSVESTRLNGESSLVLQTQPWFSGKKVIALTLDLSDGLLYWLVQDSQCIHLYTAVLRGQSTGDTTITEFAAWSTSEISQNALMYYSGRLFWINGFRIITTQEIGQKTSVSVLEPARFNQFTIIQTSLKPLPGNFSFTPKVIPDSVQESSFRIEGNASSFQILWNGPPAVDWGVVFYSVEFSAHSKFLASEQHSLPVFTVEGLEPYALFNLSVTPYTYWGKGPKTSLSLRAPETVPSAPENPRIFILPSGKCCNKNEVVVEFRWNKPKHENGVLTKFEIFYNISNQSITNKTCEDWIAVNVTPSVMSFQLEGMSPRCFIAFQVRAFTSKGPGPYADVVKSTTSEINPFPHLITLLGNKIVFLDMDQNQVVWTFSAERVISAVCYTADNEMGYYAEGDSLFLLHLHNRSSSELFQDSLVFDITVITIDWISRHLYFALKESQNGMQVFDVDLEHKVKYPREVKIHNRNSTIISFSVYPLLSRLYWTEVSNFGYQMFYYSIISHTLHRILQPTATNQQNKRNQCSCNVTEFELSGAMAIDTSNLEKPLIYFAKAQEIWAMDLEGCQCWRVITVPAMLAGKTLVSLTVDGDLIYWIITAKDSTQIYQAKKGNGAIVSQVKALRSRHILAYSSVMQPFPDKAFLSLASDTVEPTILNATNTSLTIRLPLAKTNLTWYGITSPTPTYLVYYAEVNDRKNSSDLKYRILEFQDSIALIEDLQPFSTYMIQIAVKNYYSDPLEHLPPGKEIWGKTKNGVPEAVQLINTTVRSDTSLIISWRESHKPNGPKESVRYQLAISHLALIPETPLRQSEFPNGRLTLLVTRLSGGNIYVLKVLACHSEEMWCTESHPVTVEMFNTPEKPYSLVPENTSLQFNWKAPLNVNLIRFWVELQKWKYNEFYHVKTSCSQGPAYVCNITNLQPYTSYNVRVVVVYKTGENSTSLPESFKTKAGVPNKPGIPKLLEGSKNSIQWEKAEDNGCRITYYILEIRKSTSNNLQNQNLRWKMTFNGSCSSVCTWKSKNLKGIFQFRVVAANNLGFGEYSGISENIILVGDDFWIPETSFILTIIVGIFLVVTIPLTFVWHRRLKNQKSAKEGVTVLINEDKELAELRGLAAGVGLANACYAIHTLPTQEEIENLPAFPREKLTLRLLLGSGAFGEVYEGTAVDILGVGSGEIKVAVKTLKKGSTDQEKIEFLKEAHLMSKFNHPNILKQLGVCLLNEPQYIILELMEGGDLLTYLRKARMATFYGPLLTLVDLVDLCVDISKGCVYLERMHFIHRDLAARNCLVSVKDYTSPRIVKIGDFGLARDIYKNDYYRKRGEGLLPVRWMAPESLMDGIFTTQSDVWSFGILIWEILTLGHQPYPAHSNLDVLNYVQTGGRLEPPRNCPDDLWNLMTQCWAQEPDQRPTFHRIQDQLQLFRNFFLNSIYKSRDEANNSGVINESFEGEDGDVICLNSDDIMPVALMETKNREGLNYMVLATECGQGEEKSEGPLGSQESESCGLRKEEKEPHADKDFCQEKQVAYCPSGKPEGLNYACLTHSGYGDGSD

Row | IC50 [µM] | inhibition at 5 µM [%] | SMILES | further results
1 | > 100 |  | Cc1cc(C)n(-c2cccc(C(=O)NCC3Cc4cc(Cl)cc(-c5cnccn5)c4O3)c2)n1 (stereo not shown) | Kinase Inhib. 10 uM (%): 29.68%
2 | > 5 | 20.9 | CC(C)c1nc(Nc2ccc3ncsc3c2)nc(N2CCCC2)n1 [drawing 314] | 
3 |  |  | COc1ccc(Nc2nc(N(C)CCO)nc3c2cnn3-c2ccccc2)cc1 [drawing 250] | Kinase Inhib. 5 uM (%): 41.55%
4 |  |  | Clc1ccc2nc(NCc3ccccn3)nc(-c3ccccc3)c2c1 [drawing 220] | inhibition at 10 µM: 25%
5 |  |  | COc1ccccc1C1C(C#N)=C(N)Oc2[nH]nc(C)c21 (stereo not shown) | Kinase Inhib. 5 uM (%): 27.58%
6 |  |  | NS(=O)(=O)c1ccc(CCNC(=O)c2cc(-c3cccs3)nc3ccccc23)cc1 [drawing 221] | inhibition at 10 µM: 21.5%
7 | 3.81 | 49 | Nc1nc(Nc2ccc(C(=O)NCc3ccco3)cc2)cc(Nc2ccc3ncsc3c2)n1 [drawing 238] | 
8 | 0.358 |  | CC(C)c1nc(NCc2ccccc2)nc(Nc2ccc3ncsc3c2)n1 | 
9 | 1.78 | 83.8 | O=C(COc1ccccc1)NCC(c1cccs1)S(=O)(=O)c1ccc(Cl)cc1 (stereo not shown) [drawing 290] | inhibition at 10 µM: 102%
10 | 1.22 | 62 | CC1=NNC(=O)/C1=C\c1cn(-c2ccccc2)nc1-c1ccccc1 [drawing 266] | 
11 | 0.582 | 101 | O=C(NCc1ccc(F)cc1)c1cccc(Nc2nccc(Nc3ccc4ncsc4c3)n2)c1 [drawing 286] | 
12 |  | 101 | O=C(NCCN1CCOCC1)c1cccc(Nc2nccc(Nc3ccc4ncsc4c3)n2)c1 [drawing 274] | 
13 |  |  | Cc1cc(-c2ccccc2)c2ccc(N)nc2n1 [drawing 343] | inhibition at 10 µM: 28.9%
14 | 1.5 |  | CC(C)c1nc(Nc2ccc3ncsc3c2)nc(NC2CCCCC2)n1 | 
15 | 0.76 | 98.8 | CC(C)c1nc(Nc2ccc(C(=O)NC3CCCCC3)cc2)nc(Nc2ccc3ncsc3c2)n1 [drawing 319] | 
16 | 20.4 |  | Oc1[nH]nc2nnc(-c3ccccc3)c(-c3ccccc3)c12 [drawing 257] | inhibition at 10 µM: 35.6%
17 |  |  | O=C(CCn1ccc2ccccc21)Nc1cnccn1 [drawing 340] | inhibition at 10 µM: 14.3%
18 | > 5 | 25.3 | CC(C)c1nc(Nc2ccc(C(=O)NCC3CCCCC3)cc2)nc(Nc2cccc(Cc3nc4ccccc4s3)c2)n1 [drawing 317] | 
19 | > 5 | 58.6 | CC(C)c1nc(Nc2ccc(C(=O)N3CCCCC3)cc2)nc(Nc2ccc3ncsc3c2)n1 [drawing 318] | 
20 | 1.7 |  | COc1ccccc1[C@@H]1C(C#N)=C(N)Oc2n[nH]c(C(F)(F)F)c21 | inhibition at 10 µM: 61.6%
21 |  |  | Cn1c(=O)c2c(nc3n(CCO)c(-c4ccccc4)cn23)n(C)c1=O [drawing 265] | Kinase Inhib. 5 uM (%): 26.87%
22 |  |  | Nc1nc(Nc2ccc(C(=O)N3CCCCCC3)cc2)cc(Nc2ccc3ncsc3c2)n1 [drawing 272] | Kinase Inhib. 5 uM (%): 22.67%
23 | > 5 | 45.1 | CC(C)c1nc(Nc2ccc(C(=O)NCc3ccccc3)cc2)nc(Nc2cccc(Cc3nc4ccccc4s3)c2)n1 [drawing 316] | 
24 | 0.067 |  | CC(C)c1nc(Nc2ccc(Br)cc2)nc(Nc2cc(C3CC3)n[nH]2)n1 | 
25 |  |  | O=C1c2ccccc2C(=O)N1C[C@H](O)Cn1nc(-c2cccs2)c2ccccc2c1=O [drawing 268] | Kinase Inhib. 5 uM (%): 20.74%
26 |  | 98.6 | Cc1cccc(Nc2nccc(Nc3cccc(C(=O)N(C)CCCN(C)C)c3)n2)c1 [drawing 288] | 

Row | IC50 [µM] | inhibition at 5 µM [%] | SMILES | further results
27 | > 100 |  | Nc1nc(N)n(-c2ccccc2)/c(=N/c2ccccc2)n1 [drawing 258] | inhibition at 10 µM: 34.5%
28 |  |  | NC(Cc1ccccc1)C(=O)n1ccc2cccnc21 (stereo not shown) [drawing 342] | inhibition at 10 µM: 26.9%
29 | 0.528 |  | CC(C)c1nc(NCC2CCCCC2)nc(Nc2ccc3ncsc3c2)n1 | 
30 | 0.746 |  | CC(C)c1nc(Nc2ccc(N)cc2)nc(Nc2ccc3ncsc3c2)n1 | 
31 |  | 23.7 | Cc1cccc(Nc2nccc(Nc3cccc(C(=O)NCc4ccc(F)cc4)c3)n2)c1 [drawing 242] | 
32 |  | 33.2 | Cc1cc(=O)n2nc(CC(=O)c3ccccc3)[nH]c2n1 | 
33 |  | 33.3 | Cc1cccc(Nc2nccc(Nc3cccc(C(=O)NCc4ccccc4F)c3)n2)c1 [drawing 275] | 
34 |  |  | Clc1ccc(CNc2cc(-c3ccccc3)ncn2)cc1 [drawing 246] | inhibition at 10 µM: 21.2%
35 | 1.88 | 92.5 | CC(C)c1nc(Nc2ccc(C(=O)N3CCCC3)cc2)nc(Nc2ccc3ncsc3c2)n1 [drawing 320] | 
36 |  |  | COc1ccc(NC(=O)CCn2ccc3ccccc32)cc1 [drawing 337] | inhibition at 10 µM: 29.5%
37 |  | 29.6 | CC(=O)N[C@@H]1CCN(C(=O)c2cccc(Nc3cc(N(C)c4cccc(C)c4)ncn3)c2)C1 [drawing 241] | 
38 |  |  | O=C(CC1=Nc2cccc3cccc(c23)NC1=O)NCc1cccc(I)c1 [drawing 346] | inhibition at 10 µM: 22.5%
39 | > 5 | 23.5 | CC(C)c1nc(Nc2ccc3ncsc3c2)nc(N2CCOCC2)n1 [drawing 315] | 
40 |  | 37.1 | NC(=O)c1c(NC(=O)Nc2ccccc2)sc2c1CCCC2 [drawing 264] | 
41 | 0.14 | 99.4 | CN1CCN(C(=O)c2cccc(Nc3nccc(Nc4ccc5ncsc5c4)n3)c2)CC1 [drawing 278] | 
42 | 4 |  | COc1ccccc1-c1cc(C(F)F)n2ncc(C(=O)NCc3cccnc3)c2n1 [drawing 224] | inhibition at 10 µM: 35%
43 |  |  | COc1ccc(C(F)(F)F)cc1NC(=O)CCn1ccc2ccccc21 [drawing 339] | inhibition at 10 µM: 26.4%
44 |  | 100 | C[C@@H](Oc1cc(-c2cnn(C3CCNCC3)c2)cnc1N)c1c(Cl)ccc(F)c1Cl [drawing 354] | 
45 |  | 23.6 | Cc1nc2cc(C(=O)N[C@H](c3ccccc3)c3cccnc3)ccc2[nH]1 [drawing 261] | 
46 |  |  | CC(C)(C)c1cc(C(=O)NNc2cccc(Cl)c2)n(Cc2ccccc2)n1 [drawing 252] | Kinase Inhib. 10 uM (%): 27.16%
47 | 10 |  | CSc1sc(-c2n[nH]cc2Br)c2c1C(=O)CC(C)(C)C2 [drawing 259] | inhibition at 10 µM: 34%
48 |  |  | CCOC(Nc1cc(-c2sccc2-n2c(C)ccc2C)[nH]n1)OCC [drawing 227] | Kinase Inhib. 10 uM (%): 27.57%
49 |  |  | Cc1ccc(-n2cc(-c3cccs3)nc2SCc2n[nH]c(=S)n2Cc2ccccc2)cc1 [drawing 256] | Kinase Inhib. 10 uM (%): 28.13%
50 |  | 47.3 | Cc1cccc(Nc2nccc(Nc3cccc(C(=O)Nc4ccc(F)cc4)c3)n2)c1 [drawing 245] | 
51 |  | 61.1 | Nc1nc(Nc2ccc(C(=O)NCCc3ccncc3)cc2)cc(Nc2ccc3ncsc3c2)n1 [drawing 280] | 
52 | 0.45 | 100 | O=C(c1cccc(Nc2nccc(Nc3ccc4ncsc4c3)n2)c1)N1CCCCCC1 [drawing 284] | 

Row | IC50 [µM] | inhibition at 5 µM [%] | SMILES | further results
53 | 0.086 |  | CC(C)c1nc(Nc2cccc(Br)c2)nc(Nc2ccc3ncsc3c2)n1 | 
54 | 0.361 | 96.3 | CC(C)(CO)NC(=O)c1cccc(Nc2nccc(Nc3ccc4ncsc4c3)n2)c1 [drawing 271] | 
55 | 0.04 |  | CC(C)c1nc(Nc2cccc(OC(F)(F)F)c2)nc(Nc2cc(C3CC3)n[nH]2)n1 | 
56 | 4.1 |  | O=C(c1cccc(-c2noc(-c3n[nH]c4c3CCCC4)n2)c1)N1CCCCC1 [drawing 248] | inhibition at 10 µM: 39.5%
57 | > 5 | 20.4 | CC(C)c1nc(Nc2ccc(N)cc2)nc(Nc2cc(C3CC3)[nH]n2)n1 [drawing 324] | 
58 | 0.62 |  | O=C(c1ccc(Nc2ncc(Br)c(Nc3ccc4ncsc4c3)n2)cc1)N1CCCCC1 | 
59 |  | 101 | C[C@H](O)CN(C[C@H](C)O)C(=O)c1cccc(Nc2nccc(Nc3ccc4ncsc4c3)n2)c1 [drawing 283] | 
60 | 0.84 |  | CC(C)c1nc(Nc2ccc(Br)cc2)nc(Nc2ccc3ncsc3c2)n1 | 
61 |  |  | COc1cccc(Nc2nc(N)c(C(=O)c3c(C)[nH]c4ccccc34)s2)c1 [drawing 247] | inhibition at 10 µM: 28.5%
62 | 0.13 |  | O=C(NCCc1ccc(F)cc1)c1cccc(Nc2nccc(Nc3ccc4ncsc4c3)n2)c1 [drawing 235] | Kinase Inhib. 5 uM (%): 100.68%
63 |  |  | O=C(c1ccccc1)c1nc(-c2ccco2)[nH]c1NCc1ccccc1 | Kinase Inhib. 5 uM (%): 25.92%
64 |  |  | Cc1ccc(Cn2c(NCc3nc4ccccc4n3C)nc3ccccc32)cc1 [drawing 218] | inhibition at 10 µM: 20.2%
65 |  | 43.7 | Cc1ccc(NC=C2C(=O)NN=C2c2ccccc2)cc1 [drawing 233] | 
66 | 0.62 | 101 | CCC(C)(C)NC(=O)c1cccc(Nc2nccc(Nc3ccc4ncsc4c3)n2)c1 [drawing 243] | 
67 |  | 26.6 | O=C(c1ccccc1)n1nc(-c2ccco2)nc1NCc1ccc(Cl)cc1 [drawing 295] | 
68 |  |  | O=c1cc(Oc2ccccc2)c(-c2nc[nH]n2)nn1-c1ccccc1 [drawing 228] | Kinase Inhib. 10 uM (%): 20.40%
69 |  |  | FC(F)(F)c1cc(-n2c(Cc3cccc4ccccc34)n[nH]c2=S)cc(C(F)(F)F)c1 [drawing 260] | Kinase Inhib. 5 uM (%): 28.49%
70 | 3.89 | 90.7 | CC(C)c1nc(Nc2ccc(C(=O)N3CCN(C)CC3)cc2)nc(Nc2ccc3ncsc3c2)n1 [drawing 321] | 
71 | 0.08 | 94.2 | Cc1cccc(Nc2ccnc(Nc3cccc(C(=O)N4CC=CCC4)c3)n2)c1 [drawing 234] | 
72 |  | 22.3 | COc1cccc(Nc2cc(Nc3cccc(C(=O)N4CCN(C(C)=O)CC4)c3)nc(N)n2)c1 [drawing 240] | 
73 |  |  | Cc1ccc(NC(=O)CCn2ccc3ccccc32)cc1 [drawing 335] | inhibition at 10 µM: 27.5%
74 | 16.9 |  | CCN(CCO)c1nc(Nc2ccc(F)cc2)c2cnn(-c3ccccc3)c2n1 [drawing 249] | Kinase Inhib. 10 uM (%): 38.92%
75 | 3.69 | 97.4 | CC(C)c1nc(Nc2ccc(C(=O)NCc3ccccc3)cc2)nc(Nc2ccc3ncsc3c2)n1 [drawing 322] | 
76 | 0.392 | 100 | O=C(c1cccc(Nc2nccc(Nc3ccc4ncsc4c3)n2)c1)N1CCCCC1 [drawing 301] | 
